Laboratory results published in the NIST ThermoML archive (doi:10.1016/j.fluid.2006.09.019).
Numbers after ± are expanded uncertainties.

Details: Liquid

Q: Which results are given for `COC(=O)CO` [methyl hydroxyethanoate]?
A: vapor or sublimation pressure (293.23 K): 0.4864 ± 0.077 kPa; vapor or sublimation pressure (303.17 K): 0.8459 ± 0.12 kPa; vapor or sublimation pressure (313.27 K): 1.409 ± 0.16 kPa; vapor or sublimation pressure (323.12 K): 2.311 ± 0.18 kPa; vapor or sublimation pressure (333.28 K): 3.738 ± 0.22 kPa; vapor or sublimation pressure (343.26 K): 5.905 ± 0.27 kPa; vapor or sublimation pressure (353.25 K): 9.292 ± 0.36 kPa
